Measured values reported in US6503881B2 (priority 1996, dated 2003).
Read-outs that look alike come from different tables or passages of the source.

Tested on: bacteria
[1] = A. calcoaceticus AC002, agarose dilution
[2] = E. cloacae ECL007, agarose dilution
[3] = E. coli ECO005, agarose dilution
[4] = E. faecalis EFS001, agarose dilution
[5] = E. faecalis EFS008, agarose dilution
[6] = K. pneumoniae KP001, agarose dilution
[7] = P. aeruginosa PA004, agarose dilution
[8] = S. aureus SA014, agarose dilution
[9] = S. aureus SA093, agarose dilution
[10] = S. epidermidis SE010, agarose dilution
[11] = S. maltophilia SMA002, agarose dilution
[12] = S. marcescens SMS003, agarose dilution

ILRWPWWPWRRKMILKKAGS [MBI 11B17CN]
MIC (A. calcoaceticus AC002): 2 µg/mL | MIC (E. cloacae ECL007): >128 µg/mL | MIC (E. coli ECO005): 8 µg/mL | MIC (E. faecalis EFS008): 4 µg/mL | MIC (K. pneumoniae KP001): 16 µg/mL | MIC (P. aeruginosa PA004): >128 µg/mL | MIC (S. aureus SA093): 2 µg/mL | MIC (S. epidermidis SE010): 4 µg/mL | MIC (S. maltophilia SMA002): 32 µg/mL | MIC (S. marcescens SMS003): >128 µg/mL

I L K K W P W W P R R K [MBI 11G6ACN]
MIC (A. calcoaceticus AC002): 4 µg/mL | MIC (E. coli ECO005): 64 µg/mL | MIC (E. faecalis EFS008): >128 µg/mL | MIC (S. aureus SA014): 64 µg/mL | MIC (S. epidermidis SE010): 32 µg/mL | MIC (S. maltophilia SMA002): >128 µg/mL

I L R Y V Y Y V Y R R K [MBI 11A8CN]
MIC (A. calcoaceticus AC002): 8 µg/mL | MIC (E. cloacae ECL007): >128 µg/mL | MIC (E. coli ECO005): 32 µg/mL | MIC (E. faecalis EFS001): 4 µg/mL | MIC (K. pneumoniae KP001): 128 µg/mL | MIC (P. aeruginosa PA004): >128 µg/mL | MIC (S. aureus SA093): 1 µg/mL | MIC (S. epidermidis SE010): 6 µg/mL | MIC (S. maltophilia SMA002): 32 µg/mL | MIC (S. marcescens SMS003): >128 µg/mL

I L K K W P W W P W R R K M [MBI 11D11H]
MIC (A. calcoaceticus AC001): >64 µg/mL | MIC (E. cloacae ECL007): >64 µg/mL | MIC (E. coli ECO002): 32 µg/mL | MIC (K. pneumoniae KP001): >64 µg/mL | MIC (P. aeruginosa PA001): >64 µg/mL | MIC (S. aureus SA008): 4 µg/mL | MIC (S. maltophilia SMA002): >64 µg/mL | MIC (S. marcescens SMS004): >64 µg/mL

I L K W P W W P W R R K [MBI 11B3CN]
MIC (A. calcoaceticus AC001): 64 µg/mL | MIC (E. cloacae ECL007): >128 µg/mL | MIC (E. coli ECO002): 16 µg/mL | MIC (E. faecalis EFS001): 16 µg/mL | MIC (E. faecium EFM001): 8 µg/mL | MIC (K. pneumoniae KP002): 64 µg/mL | MIC (P. aeruginosa PA003): >128 µg/mL | MIC (S. aureus SA010): 4 µg/mL | MIC (S. maltophilia SMA002): 32 µg/mL | MIC (S. marcescens SMS004): >128 µg/mL

I L R R W P W W P W R K [MBI 11B2CN]
MIC (A. calcoaceticus AC001): 64 µg/mL | MIC (E. cloacae ECL007): >128 µg/mL | MIC (E. coli ECO003): 16 µg/mL | MIC (E. faecalis EFS004): 8 µg/mL | MIC (E. faecium EFM001): 8 µg/mL | MIC (K. pneumoniae KP002): 64 µg/mL | MIC (P. aeruginosa PA003): >128 µg/mL | MIC (S. aureus SA005): 2 µg/mL | MIC (S. maltophilia SMA002): 64 µg/mL | MIC (S. marcescens SMS004): >128 µg/mL

I L R W P W W P W R R K [MBI 11B7CNF12]
MIC [1]: 4 µg/mL | MIC [2]: >128 µg/mL | MIC [3]: 16 µg/mL | MIC [4]: 2 µg/mL | MIC [5]: 8 µg/mL | MIC [6]: 16 µg/mL | MIC [7]: >128 µg/mL | MIC [8]: 2 µg/mL | MIC [9]: 1 µg/mL | MIC [10]: 4 µg/mL | MIC [11]: 64 µg/mL | MIC [12]: >128 µg/mL

ILKKWPWWPWRRKMILKKAGS [MBI 11D4CN]
MIC (A. calcoaceticus AC001): >64 µg/mL | MIC (E. cloacae ECL007): >64 µg/mL | MIC (E. coli ECO003): 64 µg/mL | MIC (E. faecalis EFS002): 16 µg/mL | MIC (E. faecium EFM002): 1 µg/mL | MIC (K. pneumoniae KP002): >64 µg/mL | MIC (P. aeruginosa PA004): >64 µg/mL | MIC (S. aureus SA009): 4 µg/mL | MIC (S. maltophilia SMA001): >64 µg/mL | MIC (S. marcescens SMS004): >64 µg/mL

I L K K F P W F P W R R K [MBI 11A6CN]
MIC (A. calcoaceticus AC002): 2 µg/mL | MIC (E. cloacae ECL007): >128 µg/mL | MIC (E. coli ECO005): 16 µg/mL | MIC (E. faecalis EFS001): 1 µg/mL | MIC (E. faecalis EFS004): 64 µg/mL | MIC (E. faecalis EFS008): 8 µg/mL | MIC (E. faecium EFM003): 2 µg/mL | MIC (K. pneumoniae KP001): 32 µg/mL | MIC (P. aeruginosa PA004): >128 µg/mL | MIC (S. aureus SA014): 4 µg/mL | MIC (S. aureus SA016): 2 µg/mL

I L K K F P F W P W R R K [MBI 11A7CN]
MIC [1]: 4 µg/mL | MIC [2]: >128 µg/mL | MIC [3]: 8 µg/mL | MIC [4]: 2 µg/mL | MIC (E. faecalis EFS002): 16 µg/mL | MIC [5]: 4 µg/mL | MIC (E. faecium EFM003): 2 µg/mL | MIC [6]: 8 µg/mL | MIC [7]: >128 µg/mL | MIC (S. aureus SA009): 2 µg/mL | MIC [8]: 4 µg/mL | MIC [9]: 1 µg/mL | MIC [10]: 4 µg/mL | MIC [11]: 64 µg/mL | MIC [12]: >28 µg/mL

I L K K W P W W A W R R K [MBI 11C4CN]
MIC (A. calcoaceticus AC002): 4 µg/mL | MIC (E. cloacae ECL007): >128 µg/mL | MIC (E. coli ECO005): 32 µg/mL | MIC (E. faecalis EFS002): 32 µg/mL | MIC (E. faecium EFM003): 2 µg/mL | MIC (K. pneumoniae KP001): >128 µg/mL | MIC (P. aeruginosa PA005): >128 µg/mL | MIC (S. aureus SA009): 4 µg/mL | MIC (S. epidermidis SE002): 4 µg/mL | MIC (S. maltophilia SMA002): 64 µg/mL | MIC (S. marcescens SMS004): >128 µg/mL

I L K K W P W W W R K [MBI 11D15CN]
MIC (E. faecalis EFS002): 32 µg/mL | MIC (E. faecium EFM003): 4 µg/mL | MIC (S. aureus SA009): 8 µg/mL

I L K K W P W W P W R R I M [MBI 11D13H]
MIC (A. calcoaceticus AC001): 64 µg/mL | MIC (E. cloacae ECL007): >64 µg/mL | MIC (E. coli ECO002): 32 µg/mL | MIC (E. faecalis EFS004): 16 µg/mL | MIC (K. pneumoniae KP002): >64 µg/mL | MIC (P. aeruginosa PA004): >64 µg/mL | MIC (S. aureus SA025): 4 µg/mL | MIC (S. maltophilia SMA002): >64 µg/mL | MIC (S. marcescens SMS004): >64 µg/mL
